24 molecules from patent US20080255111A1, “Tissue Factor Production Inhibitor” (SANKYO COMPANY LIMITED, priority 2004, published 2008) can be followed below.

The assay relates to tissue factor mRNA in LPS-stimulated mouse peritoneal macrophages. The experiment in a line: Assay of mouse peritoneal macrophage tissue factor mRNA. As to conditions: 18 h, then LPS 100 ng/ml for 6 h, relative to cyclophilin mRNA, DMSO treatment = 100, read-out: Expressed Amount of Tissue Factor mRNA; for mrna remaining at 1 µM: test compound 1 μM; for mrna remaining at 10 µM: test compound 10 μM. Type of assay: cell-based. On the procedure: 3 ml of thioglycolate (Sigma Chemical) were administered into the abdominal cavity of male C57BL/6J mice (Charles River) followed 4 days later by intraperitoneal administration of 10 ml of phosphate-buffered saline (hereinafter PBS) containing heparin (Hishiyama Pharmaceutical) at a concentration of 5 U/ml and recovery of intraperitoneal macrophages using a syringe. After centrifuging the recovered macrophages at 1000 rpm and 4° C. for 5 minutes, the supernatant was discarded followed by suspending in RPMI 1640 medium (Gibco Laboratories) containing normal fetal bovine serum (hereinafter FBS) at a concentration of 10%. The macrophages were adjusted to a concentration of 4×10^6 cells/ml, disseminated in 1 ml aliquots in a 12-well plate, and cultured for 3 hours at 37° C. using a CO2 incubator. Subsequently, the cells were washed with PBS, and the medium was replaced with RPMI medium containing lipoprotein-deficient serum (hereinafter LPDS) (Sigma Chemical) at a concentration of 5%. Test compounds dissolved in dimethylsulfoxide (DMSO) at a concentration of 1 μM were added to make a final DMSO concentration of 0.1%, and after warming for 18 hours at 37° C., lipopolysaccharide (hereinafter LPS) (Sigma Chemical) was added to make a concentration of 100 ng/ml. The cells were recovered 6 hours later, RNA was extracted using the Rneasy Mini Kit (Qiagen), and after carrying out a reverse transcription reaction using the First-Strand cDNA Synthesis Kit (Amersham Biosciences), the expressed amounts of tissue factor mRNA and cyclophylin mRNA were measured by quantitative RT-PCR (TaqMan, Applied Biosystems 7700 Sequence Detector).
Quantitative RT-PCR for tissue factor was carried out using the aforementioned TF-1 and TF-2 as primers and TF-P as probes, while quantitative PCR for cyclophilin was carried out using the aforementioned Cyl-1 and Cyl-2 as primers and Cyl-P as probes. Both were carried out by warming for 2 minutes at 50° C. and then for 10 minutes at 95° C., followed by 40 warming cycles consisting of warming for 15 seconds at 95° C. and then for 1 minute at 60° C. The expressed amount of tissue factor mRNA was calculated as a relative value of the expressed amount of cyclophilin mRNA. The expressed amounts of tissue factor mRNA resulting from the test compounds at a concentration of 1 μM or 10 μM based on a value of 100 for the expressed amount of tissue factor mRNA in a case of treatment with DMSO at a concentration of […] are shown in Table 7.

`CC(C)(C)OC(=O)c1c(COc2ccc(-c3ccc(CC(=O)O)s3)cc2)ccc(C(F)(F)F)c1O` [Reference Example 21, [5-(4-{[2-(tert-Butoxycarbonyl)-3-hydroxy-4-(trifluoromethyl)benzyl]oxy}phenyl)-2-thienyl]acetic acid]: the mrna remaining at 1 µM turned out to be 68.9%.

For `COc1cc(-n2c(Cc3ccccc3)nc3cc(N4CCOCC4)c(F)cc3c2=O)ccc1C(O)(C(F)(F)F)C(F)(F)F` [Compound H, 2-Benzyl-6-fluoro-3-{3-methoxy-4-[2,2,2-trifluoro-1-hydroxy-1-(trifluoromethyl)ethyl]phenyl}-7-(4-morpholinyl)-4(3H)-quinazolinone], the mrna remaining at 10 µM is 56%.

In the case of `CC(C)(C)OC(=O)n1c(COc2ccc(-c3ccc(CC(=O)O)cc3Cl)cc2)cc2ccc(F)cc21` [Reference Example 12, (4′-{[1-(tert-Butoxycarbonyl)-6-fluoro-1H-indol-2-yl]methoxy}-2-chloro-1,1′-biphenyl-4-yl)acetic acid], the mrna remaining at 1 µM amounted to 54.3%.

As to `CC(C)(C)OC(=O)c1c(COc2ccc(-c3ccc(C(=O)O)cc3)cc2)ccc(C(F)(F)F)c1O` [Reference Example 34, 4′-{[2-(tert-Butoxycarbonyl)-3-hydroxy-4-(trifluoromethyl)benzyl]oxy}-1,1′-biphenyl-4-carboxylic acid], the mrna remaining at 10 µM came to 39%.

Consider `COc1cc(CC(=O)O)ccc1-c1ccc(OCc2ccc(C(F)(F)F)c(O)c2C(=O)OC(C)(C)C)cc1` [Reference Example 25, (4′-{[2-(tert-Butoxycarbonyl)-3-hydroxy-4-(trifluoromethyl)benzyl]oxy}-2-methoxy-1,1′-biphenyl-4-yl)acetic acid], for which the mrna remaining at 1 µM came out at 64%.

For the molecule `O=S(=O)(c1ccccc1)N(CC(F)(F)F)c1ccc(C(O)(C(F)(F)F)C(F)(F)F)cc1` [Compound A, N-(2,2,2-Trifluoroethyl)-N-{4-[2,2,2-trifluoro-1-hydroxy-1-(trifluoromethyl)ethyl]phenyl}benzenesulfonamide, reference compound], the mrna remaining at 1 µM turned out to be 20%.

Consider `CC(C)(C)OC(=O)c1c(COc2ccc(-c3ccc(CC(=O)O)cc3Cl)cc2)ccc(C(F)(F)F)c1O` [Reference Example 26, (4′-{[2-(tert-Butoxycarbonyl)-3-hydroxy-4-(trifluoromethyl)benzyl]oxy}-2-chloro-1,1′-biphenyl-4-yl)acetic acid], for which the mrna remaining at 1 µM came out at 42.3%.

For the molecule `COc1cc2nc(Cc3cccc(F)c3)n(-c3cc(C(O)(C(F)(F)F)C(F)(F)F)ccc3C)c(=O)c2cc1OC` [Reference Example 2, 2-(3-Fluorobenzyl)-6,7-dimethoxy-3-{2-methyl-5-[2,2,2-trifluoro-1-hydroxy-1-(trifluoromethyl)ethyl]phenyl}-4(3H)-quinazolinone], the mrna remaining at 10 µM stood at 45.2%.

Take `CC(C)(C)OC(=O)c1c(COc2ccc(-c3cccc(S(C)(=O)=O)c3)cc2)ccc(C(F)(F)F)c1O` [Reference Example 29, tert-Butyl 2-hydroxy-6-({[3′-(methylsulfonyl)-1,1′-biphenyl-4-yl]oxy}methyl)-3-(trifluoromethyl)benzoate]: the mrna remaining at 10 µM amounted to 88.4%.

On to `CC(C)(C)OC(=O)c1c(COc2ccc(-c3ccc(CC(=O)O)c(F)c3)cc2)ccc(C(F)(F)F)c1O` [Reference Example 23, (4′-{[2-(tert-Butoxycarbonyl)-3-hydroxy-4-(trifluoromethyl)benzyl]oxy}-3-fluoro-1,1′-biphenyl-4-yl)acetic acid], for which the mrna remaining at 1 µM stood at 51.6%.

`CC(C)(C)OC(=O)c1c(COc2ccc(-c3ccc(CC(=O)O)cc3)cc2)ccc(F)c1O` [Reference Example 19, (4′-{[2-(tert-Butoxycarbonyl)-4-fluoro-3-hydroxybenzyl]oxy}-1,1′-biphenyl-4-yl)acetic acid]: the mrna remaining at 10 µM was 51.6%.

For the molecule `CC(C)(C)OC(=O)n1c(COc2ccc(-c3ccc(CC(=O)O)s3)cc2)cc2ccc(F)cc21` [Reference Example 11, [5-(4-{[1-(tert-Butoxycarbonyl)-6-fluoro-1H-indol-2-yl]methoxy}phenyl)-2-thienyl]acetic acid], the mrna remaining at 1 µM is 61.1%.

On to `CC(C)(C)OC(=O)n1c(COc2ccc(-c3ccc(CC(=O)O)c(Cl)c3)cc2)cc2ccc(F)cc21` [Reference Example 10, (4′-([1-(tert-Butoxycarbonyl)-6-fluoro-1H-indol-2-yl]methoxy)-3-chloro-1,1′-biphenyl-4-yl)acetic acid], for which the mrna remaining at 1 µM stood at 68.9%.

Consider `COc1cc2nc(Cc3ccsc3)n(-c3cc(C(O)(C(F)(F)F)C(F)(F)F)ccc3C)c(=O)c2cc1Cl` [Reference Example 1, 6-Chloro-7-methoxy-3-{2-methyl-5-[2,2,2-trifluoro-1-hydroxy-1-(trifluoromethyl)ethyl]phenyl}-2-(3-thienylmethyl)-4(3H)-quinazolinone], for which the mrna remaining at 10 µM was 41.1%.

In the case of `Cc1ccc(Cc2nc3ccc(-n4ccnc4)cc3c(=O)n2-c2ccc(C(O)(C(F)(F)F)C(F)(F)F)cc2C)cc1` [Compound G, 6-(1H-Imidazol-1-yl)-2-(4-methylbenzyl)-3-{2-methyl-4-[2,2,2-trifluoro-1-hydroxy-1-(trifluoromethyl)ethyl]phenyl}-4(3H)-quinazolinone], the mrna remaining at 10 µM was determined as 44.7%.

With `Cc1c(CC(=O)O)cccc1-c1ccc(OCc2ccc(C(F)(F)F)c(O)c2C(=O)OC(C)(C)C)cc1` [Reference Example 16, (4′-{[2-(tert-Butoxycarbonyl)-3-hydroxy-4-(trifluoromethyl)benzyl]oxy}-2-methyl-1,1′-biphenyl-3-yl)acetic acid], the mrna remaining at 1 µM was determined as 65.4%.

As for `CC(C)(C)OC(=O)c1c(COc2ccc(-c3ccc(CC(=O)O)cc3)cc2)ccc(C(F)(F)F)c1O` [Reference Example 13, (4′-{[2-(tert-Butoxycarbonyl)-3-hydroxy-4-(trifluoromethyl)benzyl]oxy}-1,1′-biphenyl-4-yl)acetic acid], the mrna remaining at 1 µM was found to be 65.4%.

As to `O=c1c2cc(OCCO)ccc2nc(Cc2ccccc2)n1-c1ccc(C(O)(C(F)(F)F)C(F)(F)F)cc1` [Compound E, 2-Benzyl-6-(2-hydroxyethoxy)-3-[4-[2,2,2-trifluoro-1-hydroxy-1-(trifluoromethyl)ethyl]phenyl]-4(3H)-quinazolinone], the mrna remaining at 1 µM was 37.7%.

For the molecule `Cc1cc(CC(=O)O)ccc1-c1ccc(OCc2ccc(C(F)(F)F)c(O)c2C(=O)OC(C)(C)C)cc1` [Reference Example 24, (4′-{[2-(tert-Butoxycarbonyl)-3-hydroxy-4-(trifluoromethyl)benzyl]oxy}-2-methyl-1,1′-biphenyl-4-yl)acetic acid], the mrna remaining at 1 µM was determined as 61.8%.

As for `CN(C(=O)CC1CC1)c1ccc(OCc2ccc(C(F)(F)F)c(O)c2C(=O)OC(C)(C)C)cc1` [Reference Example 8, tert-Butyl 6-({4-[(cyclopropylacetyl) (methyl)amino]phenoxy}methyl)-2-hydroxy-3-(trifluoromethyl)benzoate], the mrna remaining at 1 µM turned out to be 51.8%.

With `CCc1ccc(COc2ccc(N(C)C(C)=O)cc2)c(C(=O)OC(C)(C)C)c1O` [Reference Example 7, tert-Butyl 6-({4-[acetyl(methyl)amino]phenoxy}methyl)-3-ethyl-2-hydroxybenzoate], the mrna remaining at 1 µM was determined as 68%.

As to `O=c1c2cc(-c3ccccn3)ccc2nc(Cc2ccccc2)n1-c1ccc(C(O)(C(F)(F)F)C(F)(F)F)cc1` [Compound F, 2-Benzyl-6-(2-pyridyl)-3-[4-[2,2,2-trifluoro-1-hydroxy-1-(trifluoromethyl)ethyl]phenyl]-4(3H)-quinazolinone], the mrna remaining at 1 µM was 76.9%.

As to `CC(C)(C)OC(=O)c1c(COc2ccc(-c3ccc(CC(=O)O)cc3N)cc2)ccc(C(F)(F)F)c1O` [Reference Example 30, (2-Amino-4′-{[2-(tert-butoxycarbonyl)-3-hydroxy-4-(trifluoromethyl)benzyl]oxy}-1,1′-biphenyl-4-yl)acetic acid], the mrna remaining at 1 µM was 65.6%.

As to `CCc1cc(CC(=O)O)ccc1-c1ccc(OCc2ccc(C(F)(F)F)c(O)c2C(=O)OC(C)(C)C)cc1` [Reference Example 15, (4′-{[2-(tert-Butoxycarbonyl)-3-hydroxy-4-(trifluoromethyl)benzyl]oxy}-2-ethyl-1,1′-biphenyl-4-yl)acetic acid], the mrna remaining at 1 µM turned out to be 55.5%.
